In patent publication US6683072B1, “Compositions and methods for treatment of irritable bowel syndrome and nonulcer dyspepsia” (Vela Pharmaceuticals, Inc., priority 2003, dated 2004):

Test system: colonic propulsive motility in mice
Assay: Glass bead test of colonic propulsive motility in mice
Conditions: for Expulsion Time (min.) Mean ± SEM: 3 mm glass bead inserted 30 min after dosing, female Swiss Webster mice

Structure (SMILES) | Expulsion Time (min.) Mean ± SEM (10 mg/kg PO) | inhibition at 10 mg/kg (Mus musculus, po) | Expulsion Time (min.) Mean ± SEM (30 mg/kg PO) | effect compared with 10 mg/kg dose of loperamide (30 mg/kg tianeptine PO) | Expulsion Time (min.) Mean ± SEM (60 mg/kg PO) | effect on colonic propulsion (in words) (10, 30 and 60 mg/kg PO) | inhibition at 30 mg/kg (Mus musculus, po) | inhibition at 60 mg/kg (Mus musculus, po)
CN(C)C(=O)C(CCN1CCC(O)(c2ccc(Cl)cc2)CC1)(c1ccccc1)c1ccccc1 [loperamide] | 26.0 ± 2.6 min | 81% |  |  |  |  |  | 
CN1c2ccccc2C(NCCCCCCC(=O)O)c2ccc(Cl)cc2S1(=O)=O (stereo not shown) [tianeptine, 7-[(3-chloro-6,11-dihydro-6-methyl-dibenzo[c,f][1,2]thiazepin-11-yl)amino] heptanoic acid S,S-dioxide] | 16.6 ± 3.6 min | 38% | 25.7 ± 2.3 min | equivalent in effect to a 10 mg/kg dose of loperamide | 29.8 ± 0.2 min | dose-related inhibition of colonic propulsion | 80% | 98%
